Legend:
adhesion of DC to ICAM-3 = assay: Fluorescent beads adhesion assay: adhesion of DC to ICAM-3Fc beads; assay type: cell-based, human; conditions: 5 mM
Procedure: Exploiting a novel flowcytrometric adhesion assay involving ICAM-3-Fc chimera coated fluorescent beads (Geijtenbeek et al.), the capacity of DC, resting peripheral blood lymphocytes (PBL) and monocytes to bind to this integrin ligand was tested. […] Freshly isolated PBL, monocytes and DC were incubated for 30 min. at 37° C. with either ICAM-1Fc or ICAM-3Fc fluorescent beads. After washing, the percentage of cells that bound beads was determined by flowcytometry. • 1B: Adhesion of leukocytes to ICAM-3 after activation of β2-integrins. Binding of fluorescent ICAM-3Fc beads was measured after 30 min. at 37° C. in the presence of either PMA 980 nM) or the activating anti-β2-integrin antibody KIM185 (10 μg/ml). Inhibition of the LFA-1 specific adhesion after PMA activation was determined in the presence of the blocking anti-LFA-1 antibody NKI-L15 (20 μg/ml). • 1C: Adhesion of DC to ICAM-3 in the presence of blocking antibodies (20 μg/ml) against β2-integrins (NKI-L19), β1-integrin (AIIB2), ICAM-3 (CBR-IC3/1, CBR-IC3/2) or in the presence of EDTA (5 mM) or EGTA (5 mM). The adhesion was determined as described in FIG. 1A.
DC were cultured from monocytes in the presence of GM-CSF and IL-4. […] Adhesion was determined as described in FIG. 1A. […]

DC-SIGN [1] = target: T1, DC-SIGN (Homo sapiens, UniProt Q9NNX6); assay: Adhesion of COS7-DC-SIGN cells to ICAM-3 beads; assay type: cell-based; conditions: 5 mM
T1 construct: expressed in transfected cells; host or cells: COS7 cells, transient transfection with pRc/CMV-DC-SIGN (DEAE dextran)
T1 sequence (Q9NNX6 1-404): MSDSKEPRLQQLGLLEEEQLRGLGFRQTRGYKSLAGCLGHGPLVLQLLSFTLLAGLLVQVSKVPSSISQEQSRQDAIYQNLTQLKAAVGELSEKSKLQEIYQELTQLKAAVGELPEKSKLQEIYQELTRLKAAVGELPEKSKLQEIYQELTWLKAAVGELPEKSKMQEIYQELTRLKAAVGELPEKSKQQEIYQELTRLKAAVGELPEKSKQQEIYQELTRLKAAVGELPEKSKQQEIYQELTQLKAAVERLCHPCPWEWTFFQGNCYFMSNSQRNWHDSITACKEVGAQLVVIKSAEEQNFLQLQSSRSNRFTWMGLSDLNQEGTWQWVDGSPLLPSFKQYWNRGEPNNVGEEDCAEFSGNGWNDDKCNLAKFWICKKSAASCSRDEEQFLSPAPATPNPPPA
Text: RT-PCR analysis with primers based on the gp120-binding C-type lectin sequence, on RNA isolated from DC yielded a PCR product of the expected length of 1237 nt. The DC-specific PCR product was cloned and sequencing confirmed 100% identity with the human gp120-binding lectin (FIG. 3B). Flowcytometric analysis of COS7 cells, transfected with the cDNA encoding the placenta gp120-binding C-type lectin, unequivocally proves that the gp120 binding C-type lectin is indeed identical to DC-SIGN (FIG. 4A). […] COS7 cells were transfected and the adhesion was determined as described in FIG. 1A, respectively. Adhesion of COS7-DC-SIGN cells to ICAM-3 was measured in the presence of EGTA (5 mM) and blocking antibodies against DC-SIGN (AZN-D1), ICAM-3 (CBR-IC3/1, CBR-IC3/2) and β2 integrinds (AZN-L19). A representative experiment out of 3 is shown (SD<5%). About 30% of the transfected COS7 cells are stained with anti-DC-SIGN-antibody and therefore express DC-SIGN. […]
Carboxylate-modified TransFluorSpheres (488/645 nm, 1.0 μm; Molecular Probes, Eugene, Oreg.) were coated with ICAM-1 Fc and ICAM-3 Fc as described previously (Geijtenbeek et al., 1999 submitted). […] Adhesion was determined by measuring the percentage of cells, which have bound fluorescent beads, by flowcytometry using the FACScan (Becton and Dickinson & Co., Oxnard, Calif.).

DC-SIGN [2] = target: T1, DC-SIGN; assay: Binding of DC-SIGN to ICAM-2 and ICAM-3 expressing K562 cells (FIG. 8); assay type: cell-based

Compound	Inhibition of adhesion of DC to ICAM-3Fc fluorescent beads (adhesion of DC to ICAM-3)	Inhibition of adhesion of COS7-DC-SIGN cells to ICAM-3 (DC-SIGN [1])	Inhibition of DC-SIGN binding to K562 cells expressing ICAM-2 or ICAM-3 (DC-SIGN [2])
O=C(O)CN(CCN(CC(=O)O)CC(=O)O)CC(=O)O [EDTA]	completely blocked		
O=C(O)CN(CCOCCOCCN(CC(=O)O)CC(=O)O)CC(=O)O [EGTA]	completely blocked	blocks adhesion completely	
mannan			can be inhibited
